According to patent publication US10231954B2, “Neurodegenerative therapies” (LYTIX BIOPHARMA AS, priority 2014, dated 2019):
Read-outs that look alike come from different tables or passages of the source.

Columns and labels:
Assay type in all cases: biochemical
TLK1 = biological target: T1, TLK1 (Homo sapiens, UniProt Q9UKI8); assay: Kinase profiling TLK1; conditions: for remaining activity at 100 µM: read-out: residual kinase activity, TLK1
T1 sequence (Q9UKI8 1-766): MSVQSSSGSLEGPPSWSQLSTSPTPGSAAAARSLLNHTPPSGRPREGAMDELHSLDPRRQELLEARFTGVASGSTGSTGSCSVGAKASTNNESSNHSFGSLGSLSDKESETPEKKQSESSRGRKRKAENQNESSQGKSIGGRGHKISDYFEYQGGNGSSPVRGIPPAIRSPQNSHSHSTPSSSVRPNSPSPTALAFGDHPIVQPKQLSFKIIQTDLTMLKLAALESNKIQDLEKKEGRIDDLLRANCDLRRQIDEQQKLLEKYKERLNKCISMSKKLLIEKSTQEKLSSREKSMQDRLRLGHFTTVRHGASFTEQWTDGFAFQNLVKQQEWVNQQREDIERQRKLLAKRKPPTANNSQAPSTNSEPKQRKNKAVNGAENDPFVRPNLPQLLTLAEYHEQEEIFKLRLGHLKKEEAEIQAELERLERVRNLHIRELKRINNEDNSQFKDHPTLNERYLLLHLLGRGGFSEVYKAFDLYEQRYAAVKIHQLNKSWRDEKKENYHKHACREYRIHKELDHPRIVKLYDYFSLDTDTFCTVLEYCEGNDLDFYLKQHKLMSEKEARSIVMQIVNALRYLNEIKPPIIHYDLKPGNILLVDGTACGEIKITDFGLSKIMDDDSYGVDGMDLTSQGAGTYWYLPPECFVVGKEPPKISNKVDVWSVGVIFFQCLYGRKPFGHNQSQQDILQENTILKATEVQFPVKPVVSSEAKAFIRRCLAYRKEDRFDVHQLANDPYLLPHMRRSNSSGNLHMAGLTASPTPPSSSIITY
From the text: (§1) Any value less that 25 is considered to be highly significant inhibition.

EIF2AK3 = biological target: T2, EIF2AK3 (Homo sapiens, UniProt Q9NZJ5); assay: Kinase profiling EIF2AK3; conditions: for remaining activity at 100 µM: read-out: residual kinase activity, EIF2AK3
T2 sequence (Q9NZJ5 30-1116): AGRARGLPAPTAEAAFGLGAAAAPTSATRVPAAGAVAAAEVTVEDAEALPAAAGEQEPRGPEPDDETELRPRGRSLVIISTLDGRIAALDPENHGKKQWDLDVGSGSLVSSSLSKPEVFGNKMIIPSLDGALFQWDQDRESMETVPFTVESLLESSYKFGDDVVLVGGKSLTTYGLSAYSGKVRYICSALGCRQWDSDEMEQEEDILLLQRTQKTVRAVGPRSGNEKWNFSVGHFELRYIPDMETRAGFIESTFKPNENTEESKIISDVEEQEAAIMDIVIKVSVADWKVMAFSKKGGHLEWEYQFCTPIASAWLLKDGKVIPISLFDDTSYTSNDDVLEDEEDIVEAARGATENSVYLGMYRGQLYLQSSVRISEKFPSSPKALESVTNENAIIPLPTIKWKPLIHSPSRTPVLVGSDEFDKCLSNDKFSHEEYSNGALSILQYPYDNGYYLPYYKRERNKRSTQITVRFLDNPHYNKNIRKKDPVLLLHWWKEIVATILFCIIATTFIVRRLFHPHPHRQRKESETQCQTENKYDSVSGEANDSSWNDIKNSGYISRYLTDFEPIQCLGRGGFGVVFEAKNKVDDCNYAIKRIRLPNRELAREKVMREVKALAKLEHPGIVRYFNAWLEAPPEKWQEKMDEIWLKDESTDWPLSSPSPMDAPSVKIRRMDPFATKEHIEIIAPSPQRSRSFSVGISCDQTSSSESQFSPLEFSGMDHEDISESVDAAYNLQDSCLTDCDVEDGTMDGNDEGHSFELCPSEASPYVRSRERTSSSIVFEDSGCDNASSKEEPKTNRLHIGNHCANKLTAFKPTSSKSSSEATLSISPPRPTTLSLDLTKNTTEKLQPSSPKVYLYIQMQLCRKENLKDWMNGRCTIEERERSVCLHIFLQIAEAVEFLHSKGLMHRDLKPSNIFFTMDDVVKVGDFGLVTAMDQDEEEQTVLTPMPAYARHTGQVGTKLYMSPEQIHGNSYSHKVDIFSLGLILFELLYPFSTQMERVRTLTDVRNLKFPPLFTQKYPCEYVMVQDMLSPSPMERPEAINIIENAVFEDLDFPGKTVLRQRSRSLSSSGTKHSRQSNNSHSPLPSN
From the text: as §1

DDR2 = biological target: T3, DDR2 (Homo sapiens, UniProt Q16832); assay: Kinase profiling DDR2; conditions: for remaining activity at 100 µM: read-out: residual kinase activity, DDR2
T3 sequence (Q16832 22-855): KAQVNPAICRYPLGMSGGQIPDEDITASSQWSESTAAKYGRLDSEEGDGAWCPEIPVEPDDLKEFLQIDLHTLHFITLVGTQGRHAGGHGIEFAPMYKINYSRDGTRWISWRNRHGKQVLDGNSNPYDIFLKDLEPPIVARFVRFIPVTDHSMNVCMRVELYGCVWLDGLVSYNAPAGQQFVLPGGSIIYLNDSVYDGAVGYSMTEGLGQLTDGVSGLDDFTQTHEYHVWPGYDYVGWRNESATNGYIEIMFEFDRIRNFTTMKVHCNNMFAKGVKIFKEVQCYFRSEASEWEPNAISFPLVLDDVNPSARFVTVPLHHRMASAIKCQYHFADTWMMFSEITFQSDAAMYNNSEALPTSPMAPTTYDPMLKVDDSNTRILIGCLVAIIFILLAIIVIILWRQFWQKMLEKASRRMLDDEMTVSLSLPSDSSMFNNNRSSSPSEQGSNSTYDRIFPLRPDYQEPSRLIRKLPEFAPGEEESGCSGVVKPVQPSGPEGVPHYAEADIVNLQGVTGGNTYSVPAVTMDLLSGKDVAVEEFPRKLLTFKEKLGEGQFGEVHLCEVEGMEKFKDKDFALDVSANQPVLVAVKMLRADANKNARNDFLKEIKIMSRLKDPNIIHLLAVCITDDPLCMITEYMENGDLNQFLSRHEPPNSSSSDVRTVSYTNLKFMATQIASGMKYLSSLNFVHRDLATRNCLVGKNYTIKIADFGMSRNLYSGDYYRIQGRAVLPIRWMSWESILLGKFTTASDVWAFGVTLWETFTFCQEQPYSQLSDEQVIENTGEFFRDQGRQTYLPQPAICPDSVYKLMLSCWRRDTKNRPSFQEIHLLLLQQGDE
From the text: as §1

[1] = 100 micromolar inhibitor concentration, 100 is no change
[2] = 100 micromolar inhibitor, 100 = no change

Row | SMILES | remaining activity at 100 µM (TLK1; [1]) [%] | remaining activity at 100 µM (EIF2AK3; [1]) [%] | remaining activity at 100 µM (DDR2; [1]) [%] | residual kinase activity, TLK1 (TLK1; [1]) | residual kinase activity, EIF2AK3 (EIF2AK3; [1]) | residual kinase activity, DDR2 (DDR2; [1]) | other results
1 | CC(=O)Nc1nc2cc(O)ccc2s1 [Compound 01-66, N-(5-hydroxybenzo[d]thiazol-2-yl)acetamide] |  |  |  |  |  |  | remaining activity at 100 µM (TLK1): 92%; remaining activity at 100 µM (EIF2AK3): 59%; remaining activity at 100 µM (DDR2): 65%
2 | CC(=O)Nc1nc2ccc(O)cc2s1 [Compound 01-71] | 45 | 77 | 56 |  |  |  | 
3 | CC(=O)Nc1nc2ccc(C(F)(F)F)cc2s1 [Compound 01-90] | 82 | 105 | 62 |  |  |  | 
4 | CC(=O)Nc1nc2ccc(C#N)cc2s1 [Compound 01-94] | 53 | 78 | 93 |  |  |  | 
5 | CC(=O)Nc1cccc(NC(=O)c2nc3ccc(O)cc3s2)c1 [Compound 03-07, N-(3-acetamidophenyl)-6-hydroxybenzo[d]thiazole-2-carboxamide] |  |  |  |  |  |  | remaining activity at 100 µM (TLK1; [2]): 108%; remaining activity at 100 µM (EIF2AK3; [2]): 69%; remaining activity at 100 µM (DDR2; [2]): 90%
6 | O=C(Nc1nc2cc(O)ccc2s1)c1ccncc1 [Compound 03-11] |  |  |  | 95 | 65 | 115 | 
7 | O=C(Nc1nc2ccc(O)cc2s1)c1ccccn1 [Compound 03-12] |  |  |  | 96 | 73 | 104 | 
8 | O=C(Nc1nc2cc(O)ccc2s1)c1ccccn1 [Compound 03-13] |  |  |  | 99 | 89 | 85 | 
9 | COc1ccc2sc(NC(C)=O)nc2c1 [Compound 03-21] | 97 | 82 | 102 |  |  |  | 
10 | CC(=O)Nc1nc2ccccc2s1 [Compound 03-32] |  |  |  | 92 | 104 | 97 | 
11 | O=C(Nc1nc2cc(O)ccc2s1)c1cccnc1 [Compound 03-33] |  |  |  | 97 | 87 | 109 | 
12 | O=C(Nc1nc2ccc(O)cc2s1)c1ccccc1 [Compound 03-60] |  |  |  | 74 | 45 | 112 | 
13 | CC(=O)Nc1nc2cc(C(F)(F)F)ccc2s1 [Compound 03-73] | 103 | 100 | 111 |  |  |  | 
14 | CC(=O)Nc1nc2cc(C)ccc2s1 [Compound 03-76] |  |  |  | 106 | 97 | 110 | 
15 | CC(=O)Nc1nc2cc(F)ccc2s1 [Compound 03-77] | 89 | 99 | 101 |  |  |  | 
16 | O=C(Nc1nc2ccc(O)cc2s1)c1ccncc1 [Compound 08-42] |  |  |  | 97 | 59 | 89 | 
17 | O=C(Nc1nc2ccc(O)cc2s1)c1cccnc1 [Compound 08-44] |  |  |  | 90 | 51 | 93 | 
